Laboratory results from ChEMBL document CHEMBL3870309, “Identification of new potent phthalazine derivatives with VEGFR-2 and EGFR kinase inhibitory activity” (Eur J Med Chem, 2016).

Experiments:
cells = settings: Homo sapiens, HeLa, 72 h
Description: Antiproliferative activity against human HeLa cells after 72 hrs by Sulforhodamine B-stain assay

[1] = biological target: Vascular endothelial growth factor receptor 2 (Homo sapiens, UniProt P35968); test: Inhibition of VEGFR-2 (unknown origin) using poly (Glu, Tyr) 4:1 as substrate after 1 hr by ELISA
[2] = biological target: Epidermal growth factor receptor (Homo sapiens, UniProt P00533); test: Inhibition of EGFR (unknown origin) using poly (Glu, Tyr) 4:1 as substrate after 1 hr by ELISA
Chain of Epidermal growth factor receptor (P00533 whole entry): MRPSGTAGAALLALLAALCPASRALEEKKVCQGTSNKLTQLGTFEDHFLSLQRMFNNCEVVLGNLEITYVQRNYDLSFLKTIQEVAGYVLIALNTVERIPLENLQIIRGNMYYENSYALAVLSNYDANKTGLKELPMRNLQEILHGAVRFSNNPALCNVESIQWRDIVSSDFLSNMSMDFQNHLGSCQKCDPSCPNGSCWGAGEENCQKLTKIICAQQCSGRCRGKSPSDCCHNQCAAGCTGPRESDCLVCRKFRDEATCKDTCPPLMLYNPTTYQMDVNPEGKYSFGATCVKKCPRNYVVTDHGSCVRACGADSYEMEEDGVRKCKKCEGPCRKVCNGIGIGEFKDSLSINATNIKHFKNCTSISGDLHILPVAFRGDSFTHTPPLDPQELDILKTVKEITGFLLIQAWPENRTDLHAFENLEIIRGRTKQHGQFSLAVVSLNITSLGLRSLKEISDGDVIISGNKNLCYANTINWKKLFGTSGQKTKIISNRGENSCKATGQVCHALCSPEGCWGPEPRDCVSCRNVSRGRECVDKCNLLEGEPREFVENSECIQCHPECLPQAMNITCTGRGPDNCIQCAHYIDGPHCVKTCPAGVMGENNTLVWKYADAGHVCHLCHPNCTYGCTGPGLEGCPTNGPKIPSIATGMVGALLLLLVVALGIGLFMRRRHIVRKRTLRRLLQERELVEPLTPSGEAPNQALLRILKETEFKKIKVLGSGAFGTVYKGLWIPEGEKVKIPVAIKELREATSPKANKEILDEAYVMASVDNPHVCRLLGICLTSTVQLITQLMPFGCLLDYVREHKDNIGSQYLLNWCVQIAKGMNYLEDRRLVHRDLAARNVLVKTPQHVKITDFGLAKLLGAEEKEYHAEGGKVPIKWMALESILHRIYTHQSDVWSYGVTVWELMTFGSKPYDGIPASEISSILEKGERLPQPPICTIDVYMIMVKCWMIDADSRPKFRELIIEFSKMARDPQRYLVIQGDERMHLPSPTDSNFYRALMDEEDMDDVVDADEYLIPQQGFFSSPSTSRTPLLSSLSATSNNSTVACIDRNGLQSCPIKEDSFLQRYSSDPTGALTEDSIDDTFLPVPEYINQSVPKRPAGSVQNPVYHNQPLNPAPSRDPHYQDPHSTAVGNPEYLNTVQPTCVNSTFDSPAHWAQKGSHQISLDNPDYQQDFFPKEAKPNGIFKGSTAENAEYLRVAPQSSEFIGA

Chain of Vascular endothelial growth factor receptor 2 (P35968 whole entry): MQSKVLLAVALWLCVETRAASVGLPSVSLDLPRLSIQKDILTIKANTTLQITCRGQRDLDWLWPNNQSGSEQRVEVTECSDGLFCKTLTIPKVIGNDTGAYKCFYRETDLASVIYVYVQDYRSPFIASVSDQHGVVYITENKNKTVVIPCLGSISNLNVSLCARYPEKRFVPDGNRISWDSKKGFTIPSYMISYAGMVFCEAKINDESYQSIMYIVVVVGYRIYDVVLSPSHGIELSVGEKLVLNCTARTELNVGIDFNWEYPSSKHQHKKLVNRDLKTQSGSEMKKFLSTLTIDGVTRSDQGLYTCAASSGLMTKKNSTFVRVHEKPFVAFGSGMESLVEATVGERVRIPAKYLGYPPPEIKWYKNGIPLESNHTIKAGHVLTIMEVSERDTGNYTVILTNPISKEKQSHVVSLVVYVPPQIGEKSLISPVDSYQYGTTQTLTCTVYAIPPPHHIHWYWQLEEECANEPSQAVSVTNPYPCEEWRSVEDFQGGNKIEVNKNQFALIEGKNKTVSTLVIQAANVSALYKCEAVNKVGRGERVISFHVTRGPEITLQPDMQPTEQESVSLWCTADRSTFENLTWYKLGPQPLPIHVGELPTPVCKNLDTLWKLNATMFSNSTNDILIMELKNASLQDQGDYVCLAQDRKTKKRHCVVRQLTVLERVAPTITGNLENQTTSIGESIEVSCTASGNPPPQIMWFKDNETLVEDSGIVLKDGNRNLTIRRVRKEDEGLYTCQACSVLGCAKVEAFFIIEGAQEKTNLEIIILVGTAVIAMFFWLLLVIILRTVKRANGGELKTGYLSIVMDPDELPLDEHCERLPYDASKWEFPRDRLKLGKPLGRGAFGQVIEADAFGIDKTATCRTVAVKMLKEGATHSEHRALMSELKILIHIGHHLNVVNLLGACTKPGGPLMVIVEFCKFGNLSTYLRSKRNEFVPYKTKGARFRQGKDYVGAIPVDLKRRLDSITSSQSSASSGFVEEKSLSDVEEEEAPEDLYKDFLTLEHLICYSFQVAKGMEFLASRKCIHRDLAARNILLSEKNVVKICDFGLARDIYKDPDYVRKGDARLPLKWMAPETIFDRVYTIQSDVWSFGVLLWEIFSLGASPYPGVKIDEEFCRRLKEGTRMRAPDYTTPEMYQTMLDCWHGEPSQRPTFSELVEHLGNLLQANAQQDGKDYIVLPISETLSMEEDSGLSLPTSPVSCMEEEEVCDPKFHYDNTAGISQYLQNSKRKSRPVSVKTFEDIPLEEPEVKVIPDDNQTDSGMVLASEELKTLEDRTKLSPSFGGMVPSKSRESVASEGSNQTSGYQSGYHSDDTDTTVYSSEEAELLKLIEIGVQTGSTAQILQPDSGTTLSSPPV

SMILES: Cc1cc(C)nc(NS(=O)(=O)c2ccc(Nc3nncc4ccccc34)cc2)n1
- IC50 (cells): 3.5 nM
- IC50 [1]: 0.77 nM
- IC50 [2]: 6.7 nM

SMILES: O=C(O)c1ccc(Nc2nncc3ccccc23)cc1
- IC50 (cells): 3.92 nM
- IC50 [1]: 0.68 nM
- IC50 [2]: 6.2 nM

SMILES: Fc1ccc(Nc2nncc3ccccc23)cc1
- IC50 (cells): 2.8 nM
- IC50 [1]: 0.67 nM
- IC50 [2]: 6 nM

SMILES: Fc1ccc(/C=C/C(=N/Nc2nncc3ccccc23)c2ccccc2)cc1
- IC50 (cells): 4.45 nM
- IC50 [1]: 0.88 nM

SMILES: C(=C\c1ccccc1)/C(=N/Nc1nncc2ccccc12)c1ccccc1
- IC50 (cells): 1.4 nM
- IC50 [1]: 0.42 nM
- IC50 [2]: 5.6 nM

SMILES: O=C1CS/C(=N/Nc2nncc3ccccc23)N1
- IC50 (cells): 57 nM
- IC50 [1]: 4.4 nM
- IC50 [2]: 51 nM

SMILES: N#Cc1ccc(Nc2nncc3ccccc23)cc1
- IC50 (cells): 1.5 nM
- IC50 [1]: 0.43 nM
- IC50 [2]: 4.1 nM

SMILES: S=C(NNc1nncc2ccccc12)Nc1ccccc1
- IC50 (cells): 39 nM
- IC50 [1]: 6.2 nM
- IC50 [2]: 65 nM

SMILES: O=S(=O)(Nc1ncccn1)c1ccc(Nc2nncc3ccccc23)cc1
- IC50 (cells): 14 nM
- IC50 [1]: 8.5 nM
- IC50 [2]: 86 nM

SMILES: CCN1C(=O)CS/C1=N/Nc1nncc2ccccc12
- IC50 (cells): 65 nM
- IC50 [1]: 3.6 nM
- IC50 [2]: 47 nM

SMILES: CCOC(=O)c1ccc(Nc2nncc3ccccc23)cc1
- IC50 (cells): 2.7 nM
- IC50 [1]: 0.54 nM
- IC50 [2]: 4.4 nM

SMILES: COc1ccc(/C=C/C(=N/Nc2nncc3ccccc23)c2ccc(Cl)cc2)cc1
- IC50 (cells): 1.2 nM
- IC50 [1]: 0.41 nM
- IC50 [2]: 5.4 nM

SMILES: CCCCN1C(=O)CS/C1=N/Nc1nncc2ccccc12
- IC50 (cells): 22 nM
- IC50 [1]: 1.2 nM
- IC50 [2]: 23 nM

SMILES: Cc1ccc(C(/C=C/c2ccc(F)cc2)=N\Nc2nncc3ccccc23)cc1
- IC50 (cells): 3.4 nM
- IC50 [1]: 0.7 nM
- IC50 [2]: 6.5 nM

SMILES: S=C(NNc1nncc2ccccc12)Nc1ccc(Cl)cc1
- IC50 (cells): 20 nM
- IC50 [1]: 6.1 nM
- IC50 [2]: 64 nM

SMILES: O=S(=O)(Nc1nccs1)c1ccc(Nc2nncc3ccccc23)cc1
- IC50 (cells): 15 nM
- IC50 [1]: 8.6 nM
- IC50 [2]: 88 nM

SMILES: Cc1cc(NS(=O)(=O)c2ccc(Nc3nncc4ccccc34)cc2)no1
- IC50 (cells): 13 nM
- IC50 [1]: 9.7 nM
- IC50 [2]: 130 nM

SMILES: Oc1cc(O)c2cc(O)c(-c3cc(O)c(O)c(O)c3)[o+]c2c1 [DELPHINIDIN CHLORIDE]
- IC50 [1]: 5.09 nM
- IC50 [2]: 6.27 nM

SMILES: NS(=O)(=O)c1ccc(Nc2nncc3ccccc23)cc1
- IC50 (cells): 12 nM
- IC50 [1]: 9.8 nM
- IC50 [2]: 140 nM

SMILES: NC(=S)NNc1nncc2ccccc12
- IC50 (cells): 37 nM
- IC50 [1]: 7.5 nM
- IC50 [2]: 77 nM

SMILES: O=S(=O)(Nc1ccccn1)c1ccc(Nc2nncc3ccccc23)cc1
- IC50 (cells): 26 nM
- IC50 [1]: 7.8 nM
- IC50 [2]: 84 nM

SMILES: CCCCNC(=S)NNc1nncc2ccccc12
- IC50 (cells): 49 nM
- IC50 [1]: 4.5 nM
- IC50 [2]: 52 nM

SMILES: Clc1ccc(/C=C/C(=N/Nc2nncc3ccccc23)c2ccccc2)cc1
- IC50 (cells): 2.6 nM
- IC50 [1]: 0.55 nM
- IC50 [2]: 4.6 nM

SMILES: CCN=C(S)NNc1nncc2ccccc12
- IC50 (cells): 48 nM
- IC50 [1]: 7.3 nM
- IC50 [2]: 76 nM

SMILES: O=C1CS/C(=N/Nc2nncc3ccccc23)N1c1ccc(Cl)cc1
- IC50 (cells): 42 nM
- IC50 [1]: 2.7 nM
- IC50 [2]: 42 nM

SMILES: Clc1ccc(C(/C=C/c2ccccc2)=N\Nc2nncc3ccccc23)cc1
- IC50 (cells): 3.3 nM
- IC50 [1]: 0.69 nM
- IC50 [2]: 6.3 nM

SMILES: O=C1CS/C(=N/Nc2nncc3ccccc23)N1c1ccccc1
- IC50 (cells): 56 nM
- IC50 [1]: 3.5 nM
- IC50 [2]: 45 nM

SMILES: COc1ccc(N2C(=O)CS/C2=N/Nc2nncc3ccccc23)cc1
- IC50 (cells): 34 nM
- IC50 [1]: 2.4 nM
- IC50 [2]: 36 nM

SMILES: COc1ccc(NC(=S)NNc2nncc3ccccc23)cc1
- IC50 (cells): 38 nM
- IC50 [1]: 5.7 nM
- IC50 [2]: 53 nM
